The NIST ThermoML archive (doi:10.1021/je201051q)

Assay: xn = mol fraction of the nth substance listed
Conditions: isochoric method

C=C(F)C(F)(F)F [2,3,3,3-tetrafluoro-1-propene] + O=C=O
Conditions	molar volume [m3/mol]
223.07 K, 420.2 kPa, Fluid (supercritical or subcritical phases), x2 = 0.662	0.001227
223.08 K, 197.6 kPa, Fluid (supercritical or subcritical phases), x2 = 0.365	0.002253
223.28 K, 95.7 kPa, Fluid (supercritical or subcritical phases), x2 = 0.16	0.002938
223.62 K, 147.7 kPa, Fluid (supercritical or subcritical phases), x2 = 0.266	0.002569
223.63 K, 312 kPa, Fluid (supercritical or subcritical phases), x2 = 0.574	0.002153
224.2 K, 460.3 kPa, Fluid (supercritical or subcritical phases), x2 = 0.754	0.001747
224.91 K, 61.7 kPa, Fluid (supercritical or subcritical phases), x2 = 0.051	0.002894
225.14 K, 271.4 kPa, Fluid (supercritical or subcritical phases), x2 = 0.48	0.002063
232.92 K, 331.8 kPa, Fluid (supercritical or subcritical phases), x2 = 0.48	0.002063
232.97 K, 252.9 kPa, Fluid (supercritical or subcritical phases), x2 = 0.365	0.002254
232.97 K, 559 kPa, Fluid (supercritical or subcritical phases), x2 = 0.662	0.001227
233 K, 129.7 kPa, Fluid (supercritical or subcritical phases), x2 = 0.16	0.002939
233.01 K, 387.5 kPa, Fluid (supercritical or subcritical phases), x2 = 0.574	0.002154
233.06 K, 576 kPa, Fluid (supercritical or subcritical phases), x2 = 0.754	0.001747
233.09 K, 190.8 kPa, Fluid (supercritical or subcritical phases), x2 = 0.266	0.00257
233.25 K, 86.7 kPa, Fluid (supercritical or subcritical phases), x2 = 0.051	0.002895
242.68 K, 174.3 kPa, Fluid (supercritical or subcritical phases), x2 = 0.16	0.00294
242.84 K, 412.5 kPa, Fluid (supercritical or subcritical phases), x2 = 0.48	0.002064
242.95 K, 711.4 kPa, Fluid (supercritical or subcritical phases), x2 = 0.662	0.001228
242.99 K, 322.1 kPa, Fluid (supercritical or subcritical phases), x2 = 0.365	0.002255
243.03 K, 246 kPa, Fluid (supercritical or subcritical phases), x2 = 0.266	0.002571
243.04 K, 710.6 kPa, Fluid (supercritical or subcritical phases), x2 = 0.754	0.001748
243.07 K, 124.7 kPa, Fluid (supercritical or subcritical phases), x2 = 0.051	0.002896
243.08 K, 479.4 kPa, Fluid (supercritical or subcritical phases), x2 = 0.574	0.002155
252.69 K, 399.3 kPa, Fluid (supercritical or subcritical phases), x2 = 0.365	0.002256
252.82 K, 234.8 kPa, Fluid (supercritical or subcritical phases), x2 = 0.16	0.002942
252.82 K, 504.1 kPa, Fluid (supercritical or subcritical phases), x2 = 0.48	0.002065
252.9 K, 876.2 kPa, Fluid (supercritical or subcritical phases), x2 = 0.662	0.001228
252.95 K, 315.1 kPa, Fluid (supercritical or subcritical phases), x2 = 0.266	0.002572
252.97 K, 179 kPa, Fluid (supercritical or subcritical phases), x2 = 0.051	0.002897
253.03 K, 574.3 kPa, Fluid (supercritical or subcritical phases), x2 = 0.574	0.002156
253.04 K, 842.3 kPa, Fluid (supercritical or subcritical phases), x2 = 0.754	0.001749
262.58 K, 492.3 kPa, Fluid (supercritical or subcritical phases), x2 = 0.365	0.002257
262.8 K, 313 kPa, Fluid (supercritical or subcritical phases), x2 = 0.16	0.002943
262.86 K, 610.6 kPa, Fluid (supercritical or subcritical phases), x2 = 0.48	0.002066
262.94 K, 1044 kPa, Fluid (supercritical or subcritical phases), x2 = 0.662	0.001229
262.95 K, 401.7 kPa, Fluid (supercritical or subcritical phases), x2 = 0.266	0.002573
262.96 K, 686 kPa, Fluid (supercritical or subcritical phases), x2 = 0.574	0.002157
263.01 K, 980.1 kPa, Fluid (supercritical or subcritical phases), x2 = 0.754	0.00175
263.06 K, 253.3 kPa, Fluid (supercritical or subcritical phases), x2 = 0.051	0.002899
272.66 K, 609 kPa, Fluid (supercritical or subcritical phases), x2 = 0.365	0.002258
272.75 K, 412.9 kPa, Fluid (supercritical or subcritical phases), x2 = 0.16	0.002944
272.82 K, 813.7 kPa, Fluid (supercritical or subcritical phases), x2 = 0.574	0.002158
272.83 K, 1223.1 kPa, Fluid (supercritical or subcritical phases), x2 = 0.662	0.001229
272.84 K, 734.4 kPa, Fluid (supercritical or subcritical phases), x2 = 0.48	0.002067
272.93 K, 348.1 kPa, Fluid (supercritical or subcritical phases), x2 = 0.051	0.0029
272.93 K, 509.9 kPa, Fluid (supercritical or subcritical phases), x2 = 0.266	0.002574
272.98 K, 1122.7 kPa, Gas, x2 = 0.754	0.00175
282.56 K, 466.4 kPa, Fluid (supercritical or subcritical phases), x2 = 0.051	0.002901
282.57 K, 537.9 kPa, Fluid (supercritical or subcritical phases), x2 = 0.16	0.002945
282.62 K, 884.2 kPa, Fluid (supercritical or subcritical phases), x2 = 0.48	0.002068
282.63 K, 1179.9 kPa, Gas, x2 = 0.754	0.001751
282.64 K, 1417.7 kPa, Fluid (supercritical or subcritical phases), x2 = 0.662	0.00123
282.69 K, 751.6 kPa, Fluid (supercritical or subcritical phases), x2 = 0.365	0.002259
282.75 K, 641.4 kPa, Fluid (supercritical or subcritical phases), x2 = 0.266	0.002575
282.88 K, 940.5 kPa, Gas, x2 = 0.574	0.002159
292.47 K, 673.8 kPa, Gas, x2 = 0.16	0.002947
292.6 K, 1003.3 kPa, Gas, x2 = 0.48	0.002069
292.67 K, 1237.7 kPa, Gas, x2 = 0.754	0.001752
292.69 K, 1614 kPa, Gas, x2 = 0.662	0.001231
292.7 K, 623 kPa, Fluid (supercritical or subcritical phases), x2 = 0.051	0.002902
292.75 K, 804.6 kPa, Fluid (supercritical or subcritical phases), x2 = 0.266	0.002577
292.85 K, 906.8 kPa, Gas, x2 = 0.365	0.00226
292.91 K, 1004.6 kPa, Gas, x2 = 0.574	0.00216
302.61 K, 742.4 kPa, Gas, x2 = 0.16	0.002948
302.61 K, 1055.6 kPa, Gas, x2 = 0.48	0.00207
302.67 K, 1296 kPa, Gas, x2 = 0.754	0.001753
302.81 K, 736.5 kPa, Gas, x2 = 0.051	0.002904
302.86 K, 1049.3 kPa, Gas, x2 = 0.574	0.002161
302.88 K, 856.1 kPa, Gas, x2 = 0.266	0.002578
302.89 K, 1732.2 kPa, Gas, x2 = 0.662	0.001231
302.96 K, 976.1 kPa, Gas, x2 = 0.365	0.002261
303.05 K, 738 kPa, Gas, x2 = 0.051	0.002904
307.54 K, 758.8 kPa, Gas, x2 = 0.16	0.002949
312.7 K, 1352.4 kPa, Gas, x2 = 0.754	0.001753
312.79 K, 1094.3 kPa, Gas, x2 = 0.574	0.002162
312.82 K, 895.4 kPa, Gas, x2 = 0.266	0.002579
312.84 K, 1814.8 kPa, Gas, x2 = 0.662	0.001232
312.92 K, 1020.4 kPa, Gas, x2 = 0.365	0.002262
312.94 K, 773.7 kPa, Gas, x2 = 0.051	0.002905
313.12 K, 778.4 kPa, Gas, x2 = 0.16	0.002949
313.12 K, 1111.4 kPa, Gas, x2 = 0.48	0.002071
322.6 K, 1062.1 kPa, Gas, x2 = 0.365	0.002263
322.75 K, 808.1 kPa, Gas, x2 = 0.051	0.002906
323.09 K, 811.8 kPa, Gas, x2 = 0.16	0.002951
323.1 K, 934.8 kPa, Gas, x2 = 0.266	0.00258
323.1 K, 1139.4 kPa, Gas, x2 = 0.574	0.002163
323.1 K, 1407.6 kPa, Gas, x2 = 0.754	0.001754
323.1 K, 1898.7 kPa, Gas, x2 = 0.662	0.001232
323.11 K, 1157.2 kPa, Gas, x2 = 0.48	0.002071
333.06 K, 1183.4 kPa, Gas, x2 = 0.574	0.002164
333.07 K, 1106.6 kPa, Gas, x2 = 0.365	0.002264
333.08 K, 844.9 kPa, Gas, x2 = 0.16	0.002952
333.08 K, 972.6 kPa, Gas, x2 = 0.266	0.002581
333.08 K, 1202.8 kPa, Gas, x2 = 0.48	0.002072
333.08 K, 1460.2 kPa, Gas, x2 = 0.754	0.001755
333.08 K, 1979.1 kPa, Gas, x2 = 0.662	0.001233
333.09 K, 843.3 kPa, Gas, x2 = 0.051	0.002907
343.03 K, 1149.4 kPa, Gas, x2 = 0.365	0.002265
343.04 K, 1010.2 kPa, Gas, x2 = 0.266	0.002582
343.04 K, 1227 kPa, Gas, x2 = 0.574	0.002165
343.05 K, 877.5 kPa, Gas, x2 = 0.16	0.002953
343.05 K, 2058.6 kPa, Gas, x2 = 0.662	0.001233
343.06 K, 877.3 kPa, Gas, x2 = 0.051	0.002909
343.07 K, 1512.6 kPa, Gas, x2 = 0.754	0.001756
343.1 K, 1248 kPa, Gas, x2 = 0.48	0.002073
352.97 K, 1292.5 kPa, Gas, x2 = 0.48	0.002074
352.99 K, 909.5 kPa, Gas, x2 = 0.16	0.002954
352.99 K, 1191.4 kPa, Gas, x2 = 0.365	0.002266
352.99 K, 1269.8 kPa, Gas, x2 = 0.574	0.002166
352.99 K, 2136.6 kPa, Gas, x2 = 0.662	0.001234
353 K, 1046.2 kPa, Gas, x2 = 0.266	0.002583
353.02 K, 910.7 kPa, Gas, x2 = 0.051	0.00291
353.02 K, 1564.1 kPa, Gas, x2 = 0.754	0.001756
362.92 K, 943.3 kPa, Gas, x2 = 0.051	0.002911
362.92 K, 1082.5 kPa, Gas, x2 = 0.266	0.002584
362.92 K, 1232.6 kPa, Gas, x2 = 0.365	0.002267
362.94 K, 1311.6 kPa, Gas, x2 = 0.574	0.002167
362.96 K, 941.6 kPa, Gas, x2 = 0.16	0.002956
362.96 K, 1337.1 kPa, Gas, x2 = 0.48	0.002075
362.96 K, 1615.2 kPa, Gas, x2 = 0.754	0.001757
362.97 K, 2214.8 kPa, Gas, x2 = 0.662	0.001234
372.89 K, 973.3 kPa, Gas, x2 = 0.16	0.002957
372.89 K, 1119 kPa, Gas, x2 = 0.266	0.002586
372.92 K, 975.7 kPa, Gas, x2 = 0.051	0.002912
372.92 K, 1354.3 kPa, Gas, x2 = 0.574	0.002167
372.92 K, 1381.3 kPa, Gas, x2 = 0.48	0.002076
372.93 K, 2291.9 kPa, Gas, x2 = 0.662	0.001235
